Measured values: patent US5202339A, “Hydantoin derivatives” (Mochida Pharmaceutical Co., Ltd., priority 1987, dated 1993)
Entries after “also recorded” stand apart in the source; their conditions may differ.

What was measured:
[1] = system: Streptozotocin-Diabetic Rats; assay: Hypoglycemic Effects in Streptozotocin-Diabetic Rats (Experimental Example 4); format: in vivo, rat (male Wistar); details: STZ-diabetic rats, 100 mg/kg oral; for inhibition in vivo at 100 mg/kg: Rattus norvegicus, 6 hrs after administration, read-out: Lowering rate of serum glucose (%)
Description: (§1) Diabetic rats were produced according to the method of Junod et al. (A. Junod et al., J. Clin. Invest., 48, 2129 (1969)). Briefly, male Wistar rats were given 26.5 mg/kg of streptozotocin (STZ) intravenously. Four days later, the rats with serum glucose levels of between 400 and 500 mg/dl were used. After being fasted for 4 hrs, groups of 5 diabetic rats were orally administered with the compounds of the present invention or gliclazide in a dose of 100 mg/kg. Blood sample were collected from the orbital vein before and 6 hrs after the administration. Serum glucose levels were determined by the enzymatic method with an autoanalyzer (Cobas Fara®, Roche).

[2] = system: Normal Rats; assay: Hypoglycemic Effects in Normal Rats (Experimental Example 6); format: in vivo, rat (male Wistar); details: normal animals
Description: Groups of 5 male Wistar rats, after being fasted for 4 hrs, where orally administered with compound 38 or 47 of the present invention or gliclazide. Blood samples were collected from the orbital vein before, 1 hr and 6 hrs after the administration. Serum glucose levels were determined by the enzymatic method with an autoanalyzer (Cobas Fara®, Roche).

[3] = system: ICR strain mice; assay: acute toxicity in mice (Experimental Example 3); format: in vivo; details: 1 g/kg, oral, groups of 5 ICR mice
Description: Hydantoin derivatives of the present invention were examined for acute toxicity.

[4] = system: Streptozotocin-Diabetic Rats; assay: Ketone Body Lowering Effects in Streptozotocin-Diabetic Rats (Experimental Example 5); format: in vivo, rat (male Wistar); details: STZ-diabetic rats, oral for 2 weeks
Description: as §1
(§2) Diabetic rats were produced according to the method described previously. Groups of 5 diabetic rats were orally administered with compound 38 or 47 of the present invention for 2 weeks. The rats were deprived of food 4 hrs before the last administration, and 6 hrs after the last administration, blood samples were collected from the orbital vein. Serum total ketone body (KB) levels were determined by the enzymatic method with an autoanalyzer (Cobas Fara®, Roche). In this experiment, serum total ketone body levels in streptozotocin-diabetic rats increased by 92 % of normal rats in the mean value.

[5] = system: Streptozotocin-Diabetic Rats; assay: Hypolipidemic Effects in Streptozotocin-Diabetic Rats (Experimental Example 7); format: in vivo, rat (male Wistar); details: STZ-diabetic rats, 100 mg/kg oral for 2 weeks
Description: as §1
as §2, with “invention at a dose of 100 mg/kg” for “invention”, “triglyceride (TG), non-esterified fatty acid (NEFA) and cholesterol (CHOL)” for “total ketone body (KB)”, “experiment, each parameters of” for “experiment,”, “lipids” for “total ketone body levels”, “40” for “92”

[6] = target: T1, bovine lens aldose reductase (Bos taurus, UniProt P16116); assay: inhibitory activity on bovine lens aldose reductase (Experimental Example 2); format: biochemical; details: pH 6.2, 10 mM DL-glyceraldehyde, 0.16 mM NADPH
T1 construct: bovine lens aldose reductase preparation was used; from tissue; host or cells: bovine lens
Description: (§3) Assays were performed in 0.1M phosphate buffer (pH 6.2) containing 0.4M ammonium sulfate, 10 mM DL-glyceraldehyde, 0.16 mM nicotinamide adenine dinucleotide phosphate, reduced form (NADPH) and aldose reductase (0.010-0.016 units) in a total volume of 1.0 ml. To this mixture was added 10 μl of the solution of each hydantoin derivative to be tested, and the decrease in absorbance at 340 nm was measured with a spectrophotometer.

[7] = target: T2, rat lens aldose reductase (Rattus norvegicus, UniProt P07943); assay: inhibitory activity on rat lens aldose reductase (Experimental Example 1); format: biochemical; details: pH 6.2, 10 mM DL-glyceraldehyde, 0.16 mM NADPH
T2 construct: rat lens aldose reductase; from tissue; host or cells: rat lens
Description: as §3, with “The inhibitory activities of hydantoin derivatives on rat lens aldose reductase were measured according to the procedure of Inagaki et al. (K. Inagaki et al., Arch. Biochem. Biophys., 216, 337 (1982)) with slight modifications. Assays” for “Assays”
The concentrations of typical hydantoin derivatives of the present invention required to produce 50% inhibition are shown in table 1.

Row | Compound | inhibition in vivo at 100 mg/kg [1] [%] | hypoglycemic activity in diabetic animals (in words) [1] | influence on serum glucose level of normal rats (in words) [2] | acute toxicity: change observed over the one-week period after administration [3] | lowering of serum total ketone body levels (in words) [4] | lowering of serum lipid levels (in words) [5] | IC50 [6] [nM] | IC50 [7] [nM]
1 | Cc1ccc(S(=O)(=O)NC(=O)NN2CC3CCCC3C2)cc1 (stereo not shown) [Compound C, gliclazide, reference compound] | 11 | less potent hypoglycemic activity than all compounds of the present invention | significantly lowered serum glucose level of normal rats; also recorded: remarkable hypoglycemic activity in normal animals | – | – | – | – | –
2 | O=C1CN(S(=O)(=O)c2oc3ccccc3c2Br)C(=O)N1 [Compound 38, 1-(3-bromobenzo[b]furan-2-ylsulfonyl)hydantoin] | 33.5 | – | lesser influences on serum glucose level of normal rats | no change was observed | lowering activity of serum total ketone body levels | lowering activities of serum triglyceride, non esterified fatty acid and cholesterol levels | 160 | –
3 | O=C1CN(S(=O)(=O)c2cc3ccc(Cl)cc3cc2Cl)C(=O)N1 [Compound 7, 1-(3,6-dichloronaphthalen-2-ylsulfonyl)hydantoin] | 23.2 | – | – | no change was observed | – | – | – | 240
4 | O=C1CN(S(=O)(=O)c2oc3ccccc3c2Cl)C(=O)N1 [Compound 47, 1-(3-chlorobenzo[b]furan-2-ylsulfonyl)hydantoin] | 44.7 | – | lesser influences on serum glucose level of normal rats | – | lowering activity of serum total ketone body levels | lowering activities of serum triglyceride, non esterified fatty acid and cholesterol levels | – | –
